Results taken from patent US10537547B2, “Compositions favoring wound repair” (UNIVERSITÉ LAVAL, priority 2015, dated 2020).

Legend:
[1] = system: rabbit corneas; assay: Wound closure of rabbit corneas wounded with ethanol or N-heptanol combined with mechanical debridement; format: in vivo, New Zealand white rabbits; conditions: C646 10 μM applied 3-times/day to the eye, vs DMSO, n=4
Description: FIGS. 6A and 6B illustrate the impact of C646 on rabbit corneas wounded with either ethanol or N-heptanol combined to mechanical debridement. Rabbit corneas were wounded with ethanol (70%) or N-heptanol (100%) and mechanically debrided with a scalpel blade (crescent type). The rabbits were then divided into two groups: control corneas treated with DMSO or corneas treated with C646 (10 μm). n=4 for each conditions tested. (A) Fluorescein staining of corneas surgically wounded using either ethanol or N-heptanol combined with debridement using a crescent blade and treated with 10 μM C646. Wounded eyes were photographed using a slit lamp. (B) Graph representation of the remaining wounded corneal area (%) for each condition used in (A).
FIGS. 7A and 7B illustrate the impact of C646+SC79 on wounded rabbit corneas combined to mechanical debridement. Rabbit corneas were wounded with ethanol (70%) and mechanically debrided with a scalpel blade (crescent type). The rabbits were then divided into five groups: control corneas treated with DMSO, corneas treated with C646 (1 μM) and SC-79 (1 μM), corneas treated with C646 (1 μM) and SC-79 (10 μM), corneas treated with C646 (1 μM) and SC-79 (100 μM) and corneas treated with C646 (1 μm) and SC-79 (1 mM). n=4 for DMSO and n=5 for each remaining conditions tested. […]

[2] = system: tissue-engineered human corneas; assay: Wound closure of punch-wounded tissue-engineered human corneas; format: cell-based; conditions: 8-mm punch wound; compounds in culture medium at 2x reported IC50 (GDC-0068 36 nM; C646 800 nM; SC79 10 μM along with C646 800 nM); monitored over 4 days; n=4
Protocol: FIGS. 5A to 5C illustrate the pharmacological alteration of Akt and CREB on wound closure dynamic. (A) Left panel: Tissue-engineered human corneas (TEC) (four reconstructed corneas per condition) were wounded as in FIG. 2 and then maintained in culture medium supplemented with […] (36 nM, thin line), a pharmacological inhibitor of Akt phosphorylation, and C646 (800 nM, broken line), an inhibitor of CREB phosphorylation. Wounded corneas used as controls were exposed solely to the vehicle (DMSO, thick line). Wound closure was monitored over a 4-day period. Right panel: Measurement of wound surface remaining at each day using the ImageJ64 software (n=4). (B) Left panel: TECs were wounded as in (A) and maintained in culture medium containing C646 (800 nM) along with the AKT agonist SC79 (10 μM) (thin line) or DMSO (broken line). Wound closure was monitored as in (A). Right panel: Measurement of wound surface remaining at each day using the ImageJ64 software (n=4). (C) Composite image showing a complete view of the wounded TECs exposed either to the vehicle (DMSO) or pharmacological compounds (C646, GDC0068 or the combination of C646 and SC79) 4 days following corneal damage (sections were stained with Masson's trichrome; cells are pink and collagen is bluish). The wound margin created by the biopsy punch is indicated.
The tissue-engineered, two-layers 3D human corneas that have been used as a biomaterial were produced following the self-assembly approach (see FIG. 1). Briefly, corneal fibroblasts were seeded and cultured in fibroblast growth medium supplemented with 50 μg/ml ascorbic acid (Sigma, Oakville, Ont., Canada) for 35 days. Ascorbic acid allows fibroblasts to secrete and lay down their own ECM. After peeling from the flasks, two tissue sheets were superimposed to form a reconstructed stroma and were cultured for another week so that they could adhere to each other. […]
The wound healing of in vitro reconstructed cornea was studied. […] Wound healing was monitored daily with microphotographs. […]

[3] = system: mouse model of stroke; conditions: cited from earlier work
[4] = system: Akt; conditions: cell based assays; cited from earlier work

Row | Structure (SMILES) | wound closing time ([1]; ethanol (70%) injury combined with mechanical debridement) | wound closure ([1]; n-heptanol (100%) injury combined with mechanical debridement) | wound closure when compared to control (DMSO) [2] | neuronal death [3] | cytosolic Akt signaling [4]
1 | CC1=NN(c2ccc(C(=O)O)cc2)C(=O)C1=Cc1ccc(-c2cc(C)c(C)cc2[N+](=O)[O-])o1 [C646, 4-[4-[[5-(4,5-Dimethyl-2-nitrophenyl)-2-furanyl]methylene]-4,5-dihydro-3-methyl-5-oxo-1H-pyrazol-1-yl]benzoic acid] | clear reduction in the wound closing time | no significant impact on wound closure | accelerated wound closure | – | –
2 | CC(C)NC[C@@H](C(=O)N1CCN(c2ncnc3c2[C@H](C)C[C@H]3O)CC1)c1ccc(Cl)cc1 [GDC-0068] | – | – | delayed wound closure | – | –
3 | CCOC(=O)C1=C(N)Oc2ccc(Cl)cc2C1C(C#N)C(=O)OCC (stereo not shown) [SC-79, Ethyl-2-amino-6-chloro-4-(1-cyano-2-ethoxy-2-oxoethyl)-4H-chromene-3-carboxylate] | – | – | accelerated wound closure | prevents neuronal death | induces cytosolic Akt signaling
